For two compounds, IC50 results are on record in ChEMBL document CHEMBL1150486, “Dihydro-imidazolone derivatives as angiotensin II receptor antagonists: chiral effect on the activity” (Bioorg Med Chem Lett, 1994).

In experiment [1] the target is T1, Type-1 angiotensin II receptor B (Rattus norvegicus, UniProt P29089).
T1 sequence (P29089 whole entry): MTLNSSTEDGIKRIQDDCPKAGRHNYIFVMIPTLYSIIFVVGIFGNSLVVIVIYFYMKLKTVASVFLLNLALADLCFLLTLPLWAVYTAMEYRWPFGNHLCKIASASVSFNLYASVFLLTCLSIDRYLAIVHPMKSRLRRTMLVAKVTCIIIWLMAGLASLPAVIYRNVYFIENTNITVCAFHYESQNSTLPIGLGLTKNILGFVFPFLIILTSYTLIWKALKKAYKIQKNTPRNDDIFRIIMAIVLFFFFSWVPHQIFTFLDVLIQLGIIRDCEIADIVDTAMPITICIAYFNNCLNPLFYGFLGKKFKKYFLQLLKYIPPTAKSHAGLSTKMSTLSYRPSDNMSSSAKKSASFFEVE
In words: In vitro binding affinity at Angiotensin II receptor, type 1 from rat liver membrane by [125I]- A II displacement.

The species entered for a further experiment is Oryctolagus cuniculus. As to the kind of experiment: Antagonism of the AII induced contraction of rabbit aortic tissue in a functional assay. The following applies: Aorta.

pIC50: −log10 of the molar value.

The term pIC50 denotes the negative decadic logarithm of the IC50, by convention in mol/L.

As for `CCCCC1=NC(C)(C2CCCC2)C(=O)N1Cc1ccc(-c2ccccc2C(=O)O)cc1` (centres undefined), the pIC50 is 8.48 in experiment [1] and 8.02 in the experiment listed under Oryctolagus cuniculus.

In the case of `CCCCC1=NC(C)(c2ccccc2)C(=O)N1Cc1ccc(-c2ccccc2C(=O)O)cc1` (centres undefined), the negative logarithm of the IC50 (pIC50) in experiment [1] is 7.72; in the experiment filed under Oryctolagus cuniculus it was 6.89.
